Key:
pupil = experiment: Pupil dilation measured with Neuroptics pupillometer after α-2 agonist pre-treatment and/or phenylephrine; format: in vivo, human; settings: for CH LPupil Ave / CH Left / CLAT LPupil Ave / CLAT Left / DELTA Left / DV Left / MCV Left / Max Left / Min Left: left eye not pre-treated
Description: Dilation medication used was Phenylephrine hydrochloride 10% (Akorn, Inc). Pupillometer used was a Neuroptics DP-2000 Binocular Pupillometer).
Dilation using phenylephrine hydrochloride 10% was conducted in both eyes of the test subject to use as a control against the other compounds being tested.
After this, dilation using phenylephrine hydrochloride 2.5% or phenylephrine hydrochloride 10% was conducted to investigate the effects of the compound on pupil dilation.
Apracionidine 0.5% was administered in the right eye of the test subject three (3) times a day for 4 days. After this, dilation using phenylephrine hydrochloride 10% was conducted to investigate the effects of the compound on pupil dilation.
After this, dilation using phenylephrine hydrochloride 10% was conducted to investigate the effects of the compound on pupil dilation.
A washout period of multiple months was undertaken in between each experiment.
Pupil measurements were obtained using a Neuroptics pupillometer. Parameters were as follows: Scotopic conditions for 1 second, followed by photopic conditions for 4 seconds (1258.925 lux), followed by scotopic conditions for 10 seconds. This allowed for investigation of scotopic pupil size, photopic pupil size, and scotopic pupil size recovery after the light stimulus concluded.
The pupils of the subject's pretreated right eye and untreated control left eye were then measured under both scotopic and photopic conditions for baseline measurements (FIG. 6A). Photopic conditions consisted of a 4 second window where a light was shining in both eyes simultaneously. […]
The experiment was repeated at a higher dosage wherein the subject was administered a second ophthalmic formulation containing 10% phenylephrine to both eyes. 30 minutes after instillation of 10% phenylephrine, the pupils of the subject were then measured under both scotopic and photopic conditions (FIG. 6C). […] Because the area of a circle is dependent on the radius squared (area of a circle=πr^2), the increase in area that is created from a increasing the pupil dilation size is not linear.
The results were then compared.

α receptors (α2:α1) = settings: affinity ratio; cited from earlier work
[1] = right eye pre-treated 3 times a day for 4 days, then phenylephrine 2.5% both eyes (FIG. 6B)
[2] = right eye pre-treated 3 times a day for 4 days, then phenylephrine 10% both eyes

Brc1c(NC2=NCCN2)ccc2nccnc12 [Brimonidine, brimonidine]
DELTA RStim Ave (pupil; [1]): 4.98 mm | DV LStim Ave (pupil; [1]): 1.36 mm/s | DV RPupil Ave (pupil; [1]): 1.39 mm/s | DV RStim Ave (pupil; [1]): 1.36 mm/s | DV Right (pupil; [1]): 1.39 mm/s | MCV LStim Ave (pupil; [1]): 6.06 mm/s | MCV RPupil Ave (pupil; [1]): 5.40 mm/s | MCV RStim Ave (pupil; [1]): 6.06 mm/s | Max LStim Ave (pupil; [1]): 7.73 mm | Max RStim Ave (pupil; [1]): 7.73 mm | Max Right (pupil; [1]): 7.69 mm | Min LStim Ave (pupil; [1]): 2.75 mm | Min RPupil Ave (pupil; [1]): 2.99 mm | Min RStim Ave (pupil; [1]): 2.75 mm | Min Right (pupil; [1]): 2.99 mm | CH LPupil Ave (pupil; [1]): 68% | CH Left (pupil; [1]): 68% | CLAT LPupil Ave (pupil; [1]): 0.19 s | CLAT Left (pupil; [1]): 0.19 s | DELTA Left (pupil; [1]): 5.26 mm | DV Left (pupil; [1]): 1.33 mm/s | MCV Left (pupil; [1]): 6.71 mm/s | Max Left (pupil; [1]): 7.77 mm | Min Left (pupil; [1]): 2.51 mm | CH LStim Ave (pupil; [2]): 52% | CH RPupil Ave (pupil; [2]): 46% | CH RStim Ave (pupil; [2]): 52% | CH Right (pupil; [2]): 46% | CLAT LStim Ave (pupil; [2]): 0.22 s | CLAT RPupil Ave (pupil; [2]): 0.20 s | CLAT RStim Ave (pupil; [2]): 0.22 s | CLAT Right (pupil; [2]): 0.20 s | DELTA LStim Ave (pupil; [2]): 4.74 mm | DELTA RPupil Ave (pupil; [2]): 4.28 mm | DELTA RStim Ave (pupil; [2]): 4.74 mm | DV LStim Ave (pupil; [2]): 1.06 mm/s | DV RPupil Ave (pupil; [2]): 1.09 mm/s | DV RStim Ave (pupil; [2]): 1.06 mm/s | DV Right (pupil; [2]): 1.09 mm/s | MCV LStim Ave (pupil; [2]): 4.22 mm/s | MCV RPupil Ave (pupil; [2]): 4.20 mm/s | MCV RStim Ave (pupil; [2]): 4.22 mm/s | Max LStim Ave (pupil; [2]): 9.18 mm | Max RStim Ave (pupil; [2]): 9.18 mm | Max Right (pupil; [2]): 9.40 mm | Min LStim Ave (pupil; [2]): 4.44 mm | Min RPupil Ave (pupil; [2]): 5.12 mm | Min RStim Ave (pupil; [2]): 4.44 mm | Min Right (pupil; [2]): 5.12 mm | CH LPupil Ave (pupil; [2]): 58% | CH Left (pupil; [2]): 58% | CLAT LPupil Ave (pupil; [2]): 0.24 s | CLAT Left (pupil; [2]): 0.24 s | DELTA Left (pupil; [2]): 5.19 mm | DV Left (pupil; [2]): 1.04 mm/s | MCV Left (pupil; [2]): 4.25 mm/s | Max Left (pupil; [2]): 8.96 mm | Min Left (pupil; [2]): 3.77 mm | dilation of pretreated eye vs control eye (pupil; scotopic and photopic conditions, after 4 days pre-treatment, before phenylephrine (FIG. 6A)): less dilated | dilation of pretreated eye vs control eye (pupil; scotopic conditions, 30 minutes after 2.5% phenylephrine (FIG. 6B)): equally dilated | dilation of pretreated eye vs control eye (pupil; scotopic conditions, 30 minutes after 10% phenylephrine (FIG. 6C)): more dilated | α2:α1 affinity (α receptors (α2:α1)): 976

Source: patent publication US11738022B2, “Methods for inducing pupil dilation” (THE REGENTS OF THE UNIVERSITY OF COLORADO, A BODY CORPORATE, priority 2017, dated 2023)
